One assay has as its target sGC α1/β1 heterodimer (Homo sapiens (Human), UniProt Q02108+Q02153). In words: Cell-based sGC functional assay (cyclic GMP assay for sGC activator: CASA assay). Also on record: % Activation: concentration or dose not given beside the values. As to conditions: CHO-K1/sGC cells; for Emax: CHO-K1, activity expressed as percentage of compound A (standard), read-out: % Activation; for EC50: inflection point, 4P fit, read-out: IP. A digest of the protocol:
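CHO-K1 cells stably expressing sGC α1/β1 were pre-incubated with or without 1 μM DETA-NO (30 min, 25 °C), then exposed to compounds for 1 hr at 37 °C with 0.5 mM IBMX. Intracellular cGMP was read by HTRF and expressed as a percentage of a reference heme-dependent activator's maximum.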

Assay [1] concerns Spontaneously hypertensive rats (SHR). The assay is described as follows: Acute efficacy in spontaneously hypertensive rats (SHR). Type of assay: in vivo, rat. The source says:
Acute Efficacy in Spontaneously Hypertensive Rats (SHR)
Spontaneously hypertensive rats (SHR, male, Charles River) were implanted with DSI TA11PA-C40 telemetry device (Data Sciences, Inc., St. Paul, Minn.) under isoflurane or ketamine/metomidine anesthesia. The telemetry unit catheter was inserted into the descending aorta via the femoral artery and the telemetry device was implanted subcutaneously in the left flank area. Animals were allowed to recover from surgery for 14 days before the start of any studies. Blood pressure, heart rate, and activity signals from conscious, freely moving rats were recorded continuously for 30 seconds every 10 minutes. On the day prior to administration of compound, a single oral dose of vehicle (10% transcutol/20% Cremophor/70% water) was administered to all animals to establish baseline control data. The blood pressure lowering efficacy of compound (PO) or vehicle was evaluated following a single oral gavage. Data were collected as hourly averages, and changes in blood pressure were calculated by subtracting control baseline data on an hourly basis. Animals were maintained on normal diet with a 12 hour light-dark cycle.
Maximum peak decreases of systolic blood pressure (SBP) in SHR at a particular P.O. dose (mpk milligrams per kilogram) for the following Example compounds are provided.

Assay [2] deals with human recombinant sGC enzyme (Homo sapiens (Human), UniProt Q02108+Q02153). In words: Size Exclusion Chromatography (SEC) competition binding assay using [3H] Ex-77B as the radioligand. To be noted: [3H] Ex-77B radioligand, 24 hours at 37° C. An outline of the steps:
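Recombinant human sGC binding measured by competition against tritiated Ex-77B radioligand, with non-specific binding defined by 1 μM unlabeled Ex-77B.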
For orientation: In gel filtration, larger molecules generally elute earlier.

We go through ten compounds from patent US10030027B2, “Soluble guanylate cyclase stimulators” (MERCK SHARP & DOHME CORP., priority 2015, dated 2018).

One may read the Ki as the equilibrium dissociation constant of an inhibitor or competing ligand from its target.

For the compound `C[C@@]1(c2ccc(CCC(=O)O)cc2)C(=O)Nc2nc(-c3nn(CC4CCC(F)(F)CC4)c4cc(Cl)ccc34)nc(N)c21` [Example 58B, (S)-3-(4-[4-amino-2-{6-chloro-1-[(4,4-difluorocyclohexyl)methyl]-1H-indazol-3-yl}-5-methyl-6-oxo-6,7-dihydro-5H-pyrrolo[2,3-d]pyrimidin-5-yl]phenyl)propanoic acid], on sGC α1/β1 heterodimer, the Emax worked out at 65% and the EC50 turned out to be 1130 nM. In addition, the “Category: maximum peak decrease of systolic blood pressure (SBP) in SHR” value (from here on “Category: maximum peak decrease”) in assay [1] (Dose P.O. 3 mpk) is reported as “A (decrease in SBP in SHRs 5-25 mmHg)”. The Ki in assay [2] is 0.493 nM.

On to `Cc1ccc2c(-c3nc(N)c4c(n3)NC(=O)[C@@]4(C)c3ccc(CCC(=O)O)cc3)nn(Cc3ccccc3F)c2c1` [Example 59B, (S)-3-(4-{4-amino-2-[1-(2-fluorobenzyl)-6-methyl-1H-indazol-3-yl]-5-methyl-6-oxo-6,7-dihydro-5H-pyrrolo[2,3-d]pyrimidin-5-yl}phenyl)propanoic acid], for which, at sGC α1/β1 heterodimer, the Emax was determined as 116% and the EC50 stood at 858 nM. The “Category: maximum peak decrease” value in assay [1] (Dose P.O. 3 mpk) was “A (decrease in SBP in SHRs 5-25 mmHg)”. The Ki in assay [2] amounted to 0.293 nM.

Consider `CC1CCC(Cn2nc(-c3nc(N)c4c(n3)NC(=O)[C@@]4(C)c3ccc(CCC(=O)O)cc3)c3ccc(Cl)cc32)CC1` (single isomer, unassigned) [Example 5BA], for which the “% Activation” value on sGC α1/β1 heterodimer (activity expressed as percentage of compound A (standard)) was 76%. Moreover, at sGC α1/β1 heterodimer, the EC50 was 132 nM. In addition, the “Category: maximum peak decrease” value in assay [1] (Dose P.O. 3 mpk) is “B (decrease in SBP in SHRs 25-40 mmHg)”. The Ki in assay [2] is 0.162 nM.

As for `CCCCn1nc(-c2nc(N)c3c(n2)NC(=O)[C@@]3(C)c2ccc(CCC(=O)O)cc2)c2cccnc21` [Example 14B, (S)-3-(4-{4-amino-2-(1-butyl-1H-pyrazolo[3,4-b]pyridin-3-yl)-5-methyl-6-oxo-6,7-dihydro-5H-pyrrolo[2,3-d]pyrimidin-5-yl}phenyl)propanoic acid], at sGC α1/β1 heterodimer, the Emax was 90% and the EC50 stood at 525 nM. In addition, the “Category: maximum peak decrease” value in assay [1] (Dose P.O. 3 mpk) is on record as “A (decrease in SBP in SHRs 5-25 mmHg)”. Also, the Ki in assay [2] is 0.21 nM.

In the case of `C[C@@]1(c2nc(CCC(=O)O)cs2)C(=O)Nc2nc(-c3nn(CCC(F)(F)C(F)(F)F)c4ncccc34)nc(N)c21` (single isomer, unassigned) [Example 82B], at sGC α1/β1 heterodimer, the Emax amounted to 107% and the EC50 was 1370 nM. Further, in assay [1] (Dose P.O. 3 mpk), the “Category: maximum peak decrease” value is listed as “A (decrease in SBP in SHRs 5-25 mmHg)”. Also, in assay [2], the Ki amounted to 0.223 nM.

In the case of `CC(C)(Cc1ccc(C2(C)C(=O)Nc3nc(-c4nn(CCC(F)(F)C(F)(F)F)c5cc(Cl)ccc45)nc(N)c32)cc1)C(=O)O` (stereo not shown) [Example 33B, 3-(4-{4-amino-2-[6-chloro-1-(3,3,4,4,4-pentafluorobutyl)-1H-indazol-3-yl]-5-methyl-6-oxo-6,7-dihydro-5H-pyrrolo[2,3-d]pyrimidin-5-yl}phenyl)-2,2-dimethylpropanoic acid], on sGC α1/β1 heterodimer, the Emax was 100% and the EC50 turned out to be 804 nM. In addition, in assay [1] (Dose P.O. 3 mpk), the “Category: maximum peak decrease” value is recorded as “B (decrease in SBP in SHRs 25-40 mmHg)”. Moreover, the Ki in assay [2] was 0.594 nM.

Take `CCCCCCn1nc(-c2nc(N)c3c(n2)NC(=O)[C@@]3(C)c2ccc(CCC(=O)O)cc2)c2ccc(Cl)cc21` [Example 45B, (S)-3-{4-[4-amino-2-(6-chloro-1-hexyl-1H-indazol-3-yl)-5-methyl-6-oxo-6,7-dihydro-5H-pyrrolo[2,3-d]pyrimidin-5-yl]phenyl}propanoic acid]: on sGC α1/β1 heterodimer, the Emax was 95% and the EC50 came to 210 nM. Further, the “Category: maximum peak decrease” value in assay [1] (Dose P.O. 3 mpk) is listed as “B (decrease in SBP in SHRs 25-40 mmHg)”. Also, the Ki in assay [2] was determined as 0.182 nM.

As for `CCCCn1nc(-c2nc(N)c3c(n2)NC(=O)[C@@]3(C)c2ccc(CCC(=O)O)cc2)c2ccc(Cl)nc21` [Example 13B, (S)-3-(4-{4-amino-2-(1-butyl-6-chloro-1H-pyrazolo[3,4-b]pyridin-3-yl)-5-methyl-6-oxo-6,7-dihydro-5H-pyrrolo[2,3-d]pyrimidin-5-yl}phenyl)propanoic acid], at sGC α1/β1 heterodimer, the Emax came to 86% and the EC50 is 152 nM. Also, in assay [1] (Dose P.O. 3 mpk), the “Category: maximum peak decrease” value was “A (decrease in SBP in SHRs 5-25 mmHg)”. Moreover, in assay [2], the Ki is 0.112 nM.

Turning to `CC(C)(Cc1csc([C@]2(C)C(=O)Nc3nc(-c4nn(Cc5ccccc5F)c5ncccc45)nc(N)c32)n1)C(=O)O` [Example 90B, (S)-3-(2-{4-amino-2-[1-(2-fluorobenzyl)-1H-pyrazolo[3,4-b]pyridin-3-yl]-5-methyl-6-oxo-6,7-dihydro-5H-pyrrolo[2,3-d]pyrimidin-5-yl}-1,3-thiazol-4-yl)-2,2-dimethylpropanoic acid], at sGC α1/β1 heterodimer, the Emax is 112% and the EC50 amounted to 129 nM. Moreover, the “Category: maximum peak decrease” value in assay [1] (Dose P.O. 1 mpk) was “B (decrease in SBP in SHRs 25-40 mmHg)”. In addition, the Ki in assay [2] worked out at 0.063 nM.

For the compound `CC(C)(CC(=O)O)c1csc([C@]2(C)C(=O)Nc3nc(-c4nn(CCC(F)(F)C(F)(F)F)c5ncccc45)nc(N)c32)n1` [Example 79B, (S)-3-(2-{4-amino-5-methyl-6-oxo-2-[1-(3,3,4,4,4-pentafluorobutyl)-1H-pyrazolo[3,4-b]pyridin-3-yl]-6,7-dihydro-5H-pyrrolo[2,3-d]pyrimidin-5-yl}-1,3-thiazol-4-yl)-3-methylbutanoic acid], on sGC α1/β1 heterodimer, the Emax was 124% and the EC50 came out at 843 nM. Further, the “Category: maximum peak decrease” value in assay [1] (Dose P.O. 3 mpk) is “A (decrease in SBP in SHRs 5-25 mmHg)”. The inhibition constant Ki in assay [2] turned out to be 0.42 nM.
